Assay results as given in the NIST ThermoML archive (doi:10.1021/je101206u).

Experiment: xn = mol fraction of the nth substance listed
Details: 101 kPa, Liquid

OCCO [1,2-ethanediol] + CCCCn1cc[n+](C)c1.F[B-](F)(F)F
x2 = 0
Details | mass density [kg/m3] | viscosity [mPa·s]
293.15 K | 1113.45 | 21.44
303.15 K | 1106.45 | 14.33
313.15 K | 1099.38 | 10.01
323.15 K | 1092.24 | 7.121
333.15 K | 1085 | 5.33
343.15 K | 1077.65 | 4.103
353.15 K | 1070.17 | 3.242

CCCCn1cc[n+](C)c1.F[B-](F)(F)F [1-butyl-3-methylimidazolium tetrafluoroborate] + C[S+](C)[O-]
Details | mass density [kg/m3] | viscosity [mPa·s]
293.15 K, x1 = 0.0722 | 1120.91 | 3.514
293.15 K, x1 = 0.1764 | 1142.23 | 6.283
293.15 K, x1 = 0.2145 | 1148.47 | 7.911
293.15 K, x1 = 0.3225 | 1162.89 | 13.46
293.15 K, x1 = 0.4189 | 1172.83 | 20.76
293.15 K, x1 = 0.607 | 1186.94 | 42.17
293.15 K, x1 = 0.6557 | 1188.45 | 48.88
293.15 K, x1 = 0.8283 | 1197.44 | 83.33
293.15 K, x1 = 0.9155 | 1201.03 | 107.2
293.15 K, x1 = 1 | 1204.44 | 136.9
298.15 K, x1 = 0.0722 | 1116.22 | –
298.15 K, x1 = 0.1764 | 1137.84 | –
298.15 K, x1 = 0.2145 | 1144.16 | –
298.15 K, x1 = 0.3225 | 1158.77 | –
298.15 K, x1 = 0.4189 | 1168.84 | –
298.15 K, x1 = 0.607 | 1182.57 | –
298.15 K, x1 = 0.6557 | 1185.38 | –
298.15 K, x1 = 0.8283 | 1193.78 | –
298.15 K, x1 = 0.9155 | 1197.43 | –
298.15 K, x1 = 1 | 1200.89 | –
303.15 K, x1 = 0.0722 | 1111.54 | 2.827
303.15 K, x1 = 0.1764 | 1133.45 | 4.839
303.15 K, x1 = 0.2145 | 1139.87 | 5.968
303.15 K, x1 = 0.3225 | 1154.66 | 9.732
303.15 K, x1 = 0.4189 | 1164.85 | 14.46
303.15 K, x1 = 0.607 | 1179.32 | 27.68
303.15 K, x1 = 0.6557 | 1181 | 31.52
303.15 K, x1 = 0.8283 | 1190.12 | 51.43
303.15 K, x1 = 0.9155 | 1193.83 | 64.87
303.15 K, x1 = 1 | 1197.34 | 81.4
313.15 K, x1 = 0.0722 | 1102.21 | 2.324
313.15 K, x1 = 0.1764 | 1124.71 | 3.845
313.15 K, x1 = 0.2145 | 1131.31 | 4.668
313.15 K, x1 = 0.3225 | 1146.47 | 7.347
313.15 K, x1 = 0.4189 | 1156.91 | 10.58
313.15 K, x1 = 0.607 | 1171.76 | 19.29
313.15 K, x1 = 0.6557 | 1173.63 | 21.66
313.15 K, x1 = 0.8283 | 1182.84 | 33.94
313.15 K, x1 = 0.9155 | 1186.65 | 42.14
313.15 K, x1 = 1 | 1190.27 | 51.79
323.15 K, x1 = 0.0722 | 1092.89 | 1.951
323.15 K, x1 = 0.1764 | 1116.01 | 3.137
323.15 K, x1 = 0.2145 | 1122.79 | 3.767
323.15 K, x1 = 0.3225 | 1138.33 | 5.742
323.15 K, x1 = 0.4189 | 1149.02 | 8.052
323.15 K, x1 = 0.607 | 1164.25 | 14.12
323.15 K, x1 = 0.6557 | 1166.3 | 15.79
323.15 K, x1 = 0.8283 | 1175.62 | 25.01
323.15 K, x1 = 0.9155 | 1179.53 | 29.99
323.15 K, x1 = 1 | 1183.24 | 38.04
333.15 K, x1 = 0.0722 | 1083.58 | 1.668
333.15 K, x1 = 0.1764 | 1107.34 | 2.615
333.15 K, x1 = 0.2145 | 1114.3 | 3.118
333.15 K, x1 = 0.3225 | 1130.22 | 4.618
333.15 K, x1 = 0.4189 | 1141.18 | 6.327
333.15 K, x1 = 0.607 | 1156.79 | 10.69
333.15 K, x1 = 0.6557 | 1158.97 | 11.78
333.15 K, x1 = 0.8283 | 1168.44 | 17.38
333.15 K, x1 = 0.9155 | 1172.45 | 20.96
333.15 K, x1 = 1 | 1176.25 | 24.97
343.15 K, x1 = 0.0722 | 1074.29 | 1.447
343.15 K, x1 = 0.1764 | 1098.7 | 2.222
343.15 K, x1 = 0.2145 | 1105.83 | 2.638
343.15 K, x1 = 0.3225 | 1122.16 | 3.801
343.15 K, x1 = 0.4189 | 1133.38 | 5.104
343.15 K, x1 = 0.607 | 1149.37 | 8.359
343.15 K, x1 = 0.6557 | 1151.6 | 8.977
343.15 K, x1 = 0.8283 | 1161.32 | 13.21
343.15 K, x1 = 0.9155 | 1165.43 | 15.78
343.15 K, x1 = 1 | 1169.32 | 18.49
353.15 K, x1 = 0.0722 | 1064.99 | 1.272
353.15 K, x1 = 0.1764 | 1090.08 | 1.918
353.15 K, x1 = 0.2145 | 1097.39 | 2.278
353.15 K, x1 = 0.3225 | 1114.12 | 3.195
353.15 K, x1 = 0.4189 | 1125.62 | 4.21
353.15 K, x1 = 0.607 | 1141.99 | 6.702
353.15 K, x1 = 0.6557 | 1144.28 | 7.182
353.15 K, x1 = 0.8283 | 1154.24 | 10.34
353.15 K, x1 = 0.9155 | 1158.44 | 12.24
353.15 K, x1 = 1 | 1162.44 | 14.37

CCCCn1cc[n+](C)c1.F[B-](F)(F)F [1-butyl-3-methylimidazolium tetrafluoroborate] + OCCO
Details | mass density [kg/m3] | viscosity [mPa·s]
293.15 K, x1 = 0.0895 | 1133.64 | 19.89
293.15 K, x1 = 0.1758 | 1147.86 | 19.29
293.15 K, x1 = 0.3578 | 1167.8 | 23.44
293.15 K, x1 = 0.4397 | 1174.28 | 23.39
293.15 K, x1 = 0.6482 | 1187.63 | 39.69
293.15 K, x1 = 0.8121 | 1196.19 | 68.29
293.15 K, x1 = 1 | 1204.44 | 136.9
298.15 K, x1 = 0.0895 | 1129.95 | –
298.15 K, x1 = 0.1758 | 1144.07 | –
298.15 K, x1 = 0.3578 | 1163.96 | –
298.15 K, x1 = 0.4397 | 1170.46 | –
298.15 K, x1 = 0.6482 | 1183.91 | –
298.15 K, x1 = 0.8121 | 1192.56 | –
298.15 K, x1 = 1 | 1200.89 | –
303.15 K, x1 = 0.0895 | 1126.26 | 12.66
303.15 K, x1 = 0.1758 | 1140.28 | 12.72
303.15 K, x1 = 0.3578 | 1160.12 | 15.48
303.15 K, x1 = 0.4397 | 1166.64 | 17.5
303.15 K, x1 = 0.6482 | 1180.21 | 26.17
303.15 K, x1 = 0.8121 | 1188.95 | 41.88
303.15 K, x1 = 1 | 1197.34 | 81.4
313.15 K, x1 = 0.0895 | 1118.86 | 8.881
313.15 K, x1 = 0.1758 | 1132.71 | 8.902
313.15 K, x1 = 0.3578 | 1152.49 | 10.87
313.15 K, x1 = 0.4397 | 1159.07 | 12.33
313.15 K, x1 = 0.6482 | 1172.85 | 18.29
313.15 K, x1 = 0.8121 | 1181.74 | 28.17
313.15 K, x1 = 1 | 1190.27 | 51.79
323.15 K, x1 = 0.0895 | 1111.43 | 6.422
323.15 K, x1 = 0.1758 | 1125.13 | 6.528
323.15 K, x1 = 0.3578 | 1144.89 | 8.034
323.15 K, x1 = 0.4397 | 1151.54 | 9.112
323.15 K, x1 = 0.6482 | 1165.56 | 13.41
323.15 K, x1 = 0.8121 | 1174.6 | 20.62
323.15 K, x1 = 1 | 1183.24 | 35.23
333.15 K, x1 = 0.0895 | 1103.95 | 4.88
333.15 K, x1 = 0.1758 | 1117.55 | 4.971
333.15 K, x1 = 0.3578 | 1137.35 | 6.16
333.15 K, x1 = 0.4397 | 1144.07 | 7.005
333.15 K, x1 = 0.6482 | 1158.32 | 10.2
333.15 K, x1 = 0.8121 | 1167.55 | 14.84
333.15 K, x1 = 1 | 1176.25 | 24.97
343.15 K, x1 = 0.0895 | 1096.42 | 3.807
343.15 K, x1 = 0.1758 | 1109.96 | 3.909
343.15 K, x1 = 0.3578 | 1129.84 | 4.87
343.15 K, x1 = 0.4397 | 1136.64 | 5.552
343.15 K, x1 = 0.6482 | 1151.14 | 8.019
343.15 K, x1 = 0.8121 | 1160.56 | 11.41
343.15 K, x1 = 1 | 1169.32 | 18.49
353.15 K, x1 = 0.0895 | 1088.83 | 2.872
353.15 K, x1 = 0.1758 | 1102.35 | 3.163
353.15 K, x1 = 0.3578 | 1122.35 | 3.932
353.15 K, x1 = 0.4397 | 1129.25 | 5.153
353.15 K, x1 = 0.6482 | 1144 | 6.479
353.15 K, x1 = 0.8121 | 1153.54 | 8.692
353.15 K, x1 = 1 | 1162.44 | 14.37

C[S+](C)[O-] [dimethyl sulfoxide] + CCCCn1cc[n+](C)c1.F[B-](F)(F)F
x2 = 0
Details | mass density [kg/m3] | viscosity [mPa·s]
293.15 K | 1100.76 | 2.21
298.15 K | 1095.74 | –
303.15 K | 1090.73 | 1.843
313.15 K | 1080.69 | 1.556
323.15 K | 1070.66 | 1.337
333.15 K | 1060.63 | 1.165
343.15 K | 1050.58 | 1.028
353.15 K | 1040.51 | 0.917
